Data on seven molecules can be found in patent US10183941B2, “Pyrimidine or pyridopyridone compound and application thereof” (GUANGZHOU BEBETTER MEDICINE TECHNOLOGY CO., LTD., priority 2015, dated 2019).

Series [1] deals with T1, CDK6 (GST-CDK6(1-326end)) (Homo sapiens, UniProt Q00534).
T1 construct: GST-CDK6(1-326end); purchased Carna 04-107
Briefly: CDK6 activity inhibition experiment (Caliper mobility shift assay). Format: biochemical. Particulars: enzyme activity inhibition; read-out: CDK6 IC50 class. The protocol: The activity of CDK6 protein kinase was measured using Caliper mobility shift assay (see J. Biomol Screen 14:31, 2009). […] 10 μl of the 2.5 times diluted CDK6 enzyme solution (GST-CDK6(1-326end); Carna, Cat. No 04-107) was added and then incubated at room temperature for 10 minutes, then 10 μl of the 2.5 times diluted substrate solution Peptide FAM-P8 (GL Biochem, Cat. No. 112396) was added. After being incubated at 28° C. for 40 minutes, 25 μl of stop solution was added to stop the reaction. Conversion rate data was read from Caliper EZ Reader II (Caliper Life Sciences). The conversion rate data was converted into inhibition rate data. […] Conversion rate data was converted into inhibition rate data according to the method described above. Inhibition rate %=(max−conversion rate)/(max−min)×100.

Series [2] has as its system SW620. Briefly: Tumor cell proliferation inhibition (CellTiter-Glo), SW620. Format: cell-based. Particulars: Homo sapiens, SW-620; 72 hours, 10% fetal bovine serum; read-out: SW620 IC50 class. The protocol:
(§1) The content of adenosine triphosphate (ATP) was determined using the CellTiter-Glo Luminescent Cell Viability Assay Kit (Promega, Madison, Wis.) to evaluate cell viability. Tumor cell lines (SW620, ZR-75-1, MDA-MB-231) were purchased from the Cell Resource Center of IBS, Fudan University, Shanghai and the American Type Culture Collection (ATCC). The cell density was determined using Scepter automated cell counter (Millipore # PHCC00000) after the cells were digested with pancreatin in cell culture dishes and resuspended in DPBS medium. The cells were diluted to a solution of 44,000 cells per ml. The cell solution of which density was adjusted was added into the cell assay plate at 90 microliters per well. The well plate was incubated in an incubator with 5% CO2 at 37° C. for 24 hours and then added with test compounds with different concentrations. The cells were incubated with the compounds in the presence of 10% fetal bovine serum for 72 hours. ATP content was assayed using the CellTiter-Glo® Luminescent Cell Viability Assay kit (see instructions of manufacturer) to assess cell growth inhibition. Briefly, 30 μl of CellTiter-Glo® reagent was added to each well, rocked for 10 minutes to induce cell lysis, and […] were detected and recorded with Fluoroskan Ascent FL (Thermo). The maximum signal value was obtained from the cells treated with dimethyl sulfoxide for 72 hours. The minimum signal value was obtained from the separate culture medium (cell number was zero). Inhibition rate %=(maximum signal value−compound signal value)/(maximum signal value−minimum signal value)×100. Data was processed using GraphPad Prism V5.0 (GraphPad Software, San Diego, Calif.) software. IC50 values were calculated by fitting S-shaped dose-response curves.

The test system of series [3] is ZR-75-1. Briefly: Tumor cell proliferation inhibition (CellTiter-Glo), ZR-75-1. Format: cell-based. Particulars: Homo sapiens, 72 hours, 10% fetal bovine serum, read-out: ZR-75-1 IC50 class. How it is done: as §1
In general terms: ATP-based viability assays read luminescence as a measure of living cells.

For series [4], the target named is T2, CDK2 (Homo sapiens, UniProt P24941).
T2 construct: purchased Carna 04-103
Nature of the series: CDK2 activity inhibition experiment (Caliper mobility shift assay). Format: biochemical. Particulars: enzyme activity inhibition; read-out: CDK2 IC50 class. How it is done: After being incubated at 28° C. for 60 minutes, 25 μl of stop solution was added to stop the reaction. Conversion rate data was read from Caliper EZ Reader II (Caliper Life Sciences). The conversion rate data was converted into inhibition rate data. […] The curve was plotted with compound concentration and inhibition rate as horizontal and vertical coordinates, and the IC50 was calculated by fitting the curve using XLFit excel add-in version 4.3.1 software. Inhibition rate %=(max-conversion rate)/(max-min)×100.

Series [5] addresses T3, CDK4 (GST-CDK4(1-303end)/GST-CycD3(1-292end)) (Homo sapiens, UniProt P11802).
T3 construct: GST-CDK4(1-303end); purchased Carna 04-105
Briefly: CDK4 activity inhibition experiment (Caliper mobility shift assay). It is filed as biochemical. Particulars: enzyme activity inhibition; read-out: CDK4 IC50 class.

The subject of series [6] is MDA-MB-231. Nature of the series: Tumor cell proliferation inhibition (CellTiter-Glo), MDA-MB-231. It is filed as cell-based. As to conditions: Homo sapiens, 72 hours, 10% fetal bovine serum, read-out: MDA-MB-231 IC50 class. How it is done:
as §1

Series [7] concerns MDA-MB-231 breast cancer cells. Nature of the series: Cell cycle inhibition experiment (PI staining, flow cytometry). It is filed as cell-based. Particulars: Homo sapiens, MDA-MB-231 cells, 24 h. The source says: The cell cycle and apoptosis assay kit (Beyotime, C1052) used in this experiment is an assay kit for analyzing the cell cycle and apoptosis using the classic method of Propidium staining (PI staining). Propidium (PI) is a double-stranded DNA fluorescent dye. The combination of propidium and double-stranded DNA can produce fluorescence, and fluorescence intensity is proportional to the amount of double-stranded DNA. After DNA in cells is stained with propidium, the DNA content of the cells can be measured by flow cytometry, and then the cell cycle and apoptosis can be analyzed according to the distribution of DNA content.
MDA-MB-231 cells were seeded into a 6-well plate at 3×10^5 per well and cultured for 24 hours.
In tumor cell cycle, the binding of CDK4 and CDK6 to cyclin D promotes G1 phase into S phase. CDK4/6 inhibitor selectively arrests the G1 phase of tumor cells into S phase. The detection results of the cell cycle of MDA-MB-231 breast cancer cells by flow cytometry indicate that the CDK4/6 inhibitor compounds provided by the present disclosure stop the growth of G1 phase cells and reduce S phase cells in a concentration-dependent manner, as shown in the following table.

Series [8] has as its system locally advanced or metastatic breast cancer, ER+ / HER2−. As to conditions: cited from earlier work.
The nature of series [9]: Pharmacokinetic (PK) experiment in rats. It is filed as in vivo. As to conditions: male, SD, plasma, po, rat, intragastric 20 mg/kg. The protocol:
Male SD rats weighing 300-350 g were fasted overnight prior to the experiment. The compounds to be tested were dissolved in 30% sulfobutyl ether-β-cyclodextrin (SBE-β-CD) and the rats were intragastric administration at 20 mg/kg. The blood was taken from the tails of the rats at 15 min, 30 min, and 1, 2, 3, 4, 6, 8 and 24 hours after administration, with about 0.3 ml of blood at each time point, and then the blood was placed in a centrifuge tube containing K2-EDTA, and centrifuged (2,000 g, 10 min, 4° C.) to take the plasma which was then stored in an ultra-low temperature freezer at −80° C. 50 μL, of plasma sample was mixed with 5 μL of internal standard (IS) and extracted with ethyl acetate. The residue was redissolved in acetonitrile after vacuum drying. The sample was filtered and injected into LC-MS/MS for analysis to determine the concentration of the compounds to be tested.
In the table: Tmax refers to the peak time, Cmax refers to the maximum plasma drug concentration, T1/2 is the half-life, AUClast refers to the area under the 0-24 hour time-concentration curve, AUCinf refers to the area under the 0-Inf time-concentration curve.

Series [10] has as its system MDA-MB-435 breast cancer cells. Briefly: Pharmacodynamic experiment, MDA-MB-435 xenograft. It is filed as in vivo, mouse. How it is done: MDA-MB-435 breast cancer cells were obtained from Shanghai Cell Bank of Chinese Academy of Sciences. Cryopreserved cells were thawed in a 37° C. water bath and then placed in RPMI 1640 medium supplemented with 10% fetal bovine serum (FBS), 1% insulin (Bioman Biotech, Shanghai) and incubated in 5% CO2 of Tissue Culture Incubator. […] The sign of successful transplantation was the formation of a round bulging lump under the skin. Tumor size can be measured approximately two weeks after implantation. The tumor size was measured by a caliper.

The conditions of series [11]: cited from earlier work.

Structures are written as SMILES. Read-outs that look alike come from different tables or passages of the source. Where only a bound is given, the exact number is not on record here.

T1 sequence (Q00534 whole entry): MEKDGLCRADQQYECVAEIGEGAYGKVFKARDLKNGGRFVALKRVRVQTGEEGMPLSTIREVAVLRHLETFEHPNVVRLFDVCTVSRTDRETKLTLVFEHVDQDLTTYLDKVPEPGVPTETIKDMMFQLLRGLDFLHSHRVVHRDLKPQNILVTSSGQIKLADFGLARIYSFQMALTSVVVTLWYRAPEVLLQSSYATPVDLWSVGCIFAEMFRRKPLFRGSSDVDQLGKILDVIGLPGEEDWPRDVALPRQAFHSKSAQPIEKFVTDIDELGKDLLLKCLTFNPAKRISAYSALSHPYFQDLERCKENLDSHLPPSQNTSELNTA
T1 sequence (P30281 whole entry partner): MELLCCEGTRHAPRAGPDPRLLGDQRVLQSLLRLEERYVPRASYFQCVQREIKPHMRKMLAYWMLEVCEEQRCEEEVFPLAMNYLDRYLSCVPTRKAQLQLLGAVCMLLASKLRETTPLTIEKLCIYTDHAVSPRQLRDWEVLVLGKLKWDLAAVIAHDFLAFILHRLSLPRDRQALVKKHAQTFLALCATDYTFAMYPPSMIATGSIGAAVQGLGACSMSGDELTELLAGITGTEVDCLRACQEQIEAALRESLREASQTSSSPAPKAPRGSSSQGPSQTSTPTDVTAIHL
T3 sequence (P11802 whole entry): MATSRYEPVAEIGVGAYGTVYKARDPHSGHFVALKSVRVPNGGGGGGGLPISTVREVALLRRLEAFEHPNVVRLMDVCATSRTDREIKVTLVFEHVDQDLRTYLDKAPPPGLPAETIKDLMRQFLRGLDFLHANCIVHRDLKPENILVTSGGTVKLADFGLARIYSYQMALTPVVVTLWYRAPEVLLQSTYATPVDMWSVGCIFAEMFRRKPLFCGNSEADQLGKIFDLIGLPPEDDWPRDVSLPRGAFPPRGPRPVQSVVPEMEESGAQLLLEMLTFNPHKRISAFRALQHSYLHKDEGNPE
T3 sequence (P30281 whole entry partner): as the sequence (P30281 whole entry partner) above

By IC50 is commonly meant the concentration at which inhibition is half-maximal. On to `CC(=O)c1c(C)c2cnc(Nc3ccc(C4CCN(CCS(=O)(=O)c5ccc(Cl)cc5)CC4)cn3)nc2n(C2CCCC2)c1=O` [Compound 4, 6-acetyl-2-((5-(1-(2-((4-chlorophenyl)sulfonyl)ethyl)piperidin-4-yl)pyridin-2-yl)amino)-8-cyclopentyl-5-methylpyrido[2,3-d]pyrimidin-7(8H)-one], for which the IC50 in series [1] is over 500 nM.
In the case of `CC(=O)c1c(C)c2cnc(Nc3ccc(C4CCCN(CCS(C)(=O)=O)C4)cn3)nc2n(C2CCCC2)c1=O` (centres unmarked) [Compound 5, 6-acetyl-8-cyclopentyl-5-methyl-2-((5-(1-(2-(methylsulfonyl)ethyl)piperidin-3-yl)pyridin-2-yl)amino)pyrido[2,3-d]pyrimidin-7(8H)-one], the IC50 in [2] is 100 to 500 nM; in series [3] it was 100 to 500 nM; in series [4] it was over 500 nM; in series [5] it was 10 to 50 nM; in series [6] it was 500 to 1000 nM; in [1] it was 10 to 50 nM.
For `CC(=O)c1c(C)c2cnc(Nc3ccc(C4CCN(CCS(C)(=O)=O)CC4)cn3)cc2n(C2CCCC2)c1=O` [Compound 13, 3-acetyl-1-cyclopentyl-4-methyl-7-((5-(1-(2-(methylsulfonyl)ethyl)piperidin-4-yl)pyridin-2-yl)amino)-1,6-naphthyridin-2(1H)-one], the IC50 is 1000 to 5000 nM in series [2]; 500 to 1000 nM in series [3]; over 500 nM in [4]; under 10 nM in series [5]; 500 to 1000 nM in [6]; 10 to 50 nM in [1].
On to `CN(C)C(=O)c1cc2cnc(Nc3ccc(N4CCNCC4)cn3)nc2n1C1CCCC1` [LEE011, reference compound], for which the IC50 in series [2] is 500 to 1000 nM; in [3], at most 100 nM; in [6], 1000 to 5000 nM.
Regarding `CCN1CCN(Cc2ccc(Nc3ncc(F)c(-c4cc(F)c5nc(C)n(C(C)C)c5c4)n3)nc2)CC1` [LY2835219, reference compound], the IC50 in [7] (read-out: IC50 (nM) G1 arrest) was 35.2 ± 8.9 nM; in [7] (read-out: IC50 (nM) S decrease), 42.9 ± 13.5 nM; in series [2], 100 to 500 nM; in series [3] it was at most 100 nM; in series [6], 100 to 500 nM.
By Cmax is commonly meant the highest concentration seen after dosing. Broadly, the Tmax is the time from dosing to the highest level. What is called half-life is how long it takes for the measured level to halve. One may read the AUC(0-t) as exposure summed from dosing to a finite time, without extrapolation to infinity. Lower therefore signals low exposure. In general, AUC(0-inf) refers to the area under the concentration-time curve extrapolated to infinity. The term AUC denotes concentration integrated over time. With `CC(=O)c1c(C)c2cnc(Nc3ccc(N4CCNCC4)cn3)nc2n(C2CCCC2)c1=O` [PD-0332991, Palbociclib, reference compound], the IC50 in [7] (read-out: IC50 (nM) G1 arrest) is 42.4 ± 16.1 nM; in [7] (read-out: IC50 (nM) S decrease), 45.1 ± 10.9 nM; in [2], 100 to 500 nM; in series [3] it was 100 to 500 nM; in [6] it was 100 to 500 nM. The side effects result in series [8] (clinical, Pfizer Press Release) is “leukocyte reduction and fatigue”. In [9], this molecule returned a Cmax of 213 ng/mL. For the same molecule, in series [9], the Tmax worked out at 1.2 h. In addition, in series [9], the half-life was 10 h. The molecule further gave an AUC(0-t) in [9] (0-24 hour) of 1250 ng·h/mL. The area under the curve AUC(0-inf) in series [9] (0-Inf) stood at 1400 ng·h/mL. In addition, the “average body weight of the mice” value in [10] (after 6 days of oral 150 mg/kg once daily) is given as “significantly reduced”. For the same molecule, the T/C value was determined as 41% in series [10] (after 14 days of oral administration, PD-0332991 150 then 100 mg/kg once daily, Compound 1 75 mg/kg twice daily) and 35% in series [10] (day 6 after discontinuation (D20)). Besides, the “elimination half-life (Average)” value in series [11] (Phase I clinical) is 25.9 h. Moreover, the AUC in series [11] (Phase I, single oral dose of 25-150 mg) is 58 to 641 ng·h/mL.
For the molecule `N#Cc1ccc(C(c2ccc(C#N)cc2)n2cncn2)cc1` [letrozole], in series [8] (phase II, postmenopausal women, ER+ HER2− breast cancer, p=0.0004), the “progression-free survival (PFS)” value was 10.2 months.
